pIC50: −log10 of the molar value. Like-named read-outs stand apart in the source and are kept apart here.
Columns and labels:
Ba/F3 FIG-ROS cells = target: T1, Ba/F3 FIG-ROS cells (Homo sapiens, UniProt P08922); experiment: Cell viability (MTS) assay, Ba/F3 FIG-ROS; type: cell-based
T1 construct: fused on or other part: GFP is co-expressed from an IRES in pMIG and is not fused; Q9HD26 (Golgi-associated PDZ and coiled-coil motif-containing protein)
Text: Ba/F3 cell lines were maintained at densities of 0.5×10^6 to 1.5×10^6 per ml of media. FIG-ROS and SLC-ROS Ba/F3 lines were created by infecting the parental Ba/F3 with retrovirus expressing either human FIG-ROS-S (indicated FIG-ROS herein) or SLC-ROS-S (indicated SLC-ROS herein). Stable transfectant lines were sorted for GFP expression on a FACS Aria® flow cytometer. Cells were counted daily using Guava ViaCount® reagent and Guava Personal Cell Analysis® flow cytometer. […] Early passage NIH3T3 cells were infected with retrovirus expressing either FIG-ROS or SLC-ROS and sorted for GFP expression as described above for Ba/F3 cells. […] This media is referred to as RPMI-10% FBS herein.
The FIG-ROS-S (FIG-ROS) fusion protein has been reported in non-small cell lung cancers (NSCLC), glioblastomas, and cholangiocarcinomas.

Ba/F3 parental cells = experiment: Cell viability (MTS) assay, Ba/F3 parental; type: cell-based; conditions: Mus musculus, BaF3, read-out: IC50 (insensitive/resistant up to stated concentration)
Experimental: The parental Ba/F3 cell line was cultured in RPMI 1640 medium with 10% FBS, L-glutamine, penicillin/streptomycin and 15% WEHI-conditioned media. Ba/F3 cell lines were maintained at densities of 0.5×10^6 to 1.5×10^6 per ml of media. FIG-ROS and SLC-ROS Ba/F3 lines were created by infecting the parental Ba/F3 with retrovirus expressing either human FIG-ROS-S (indicated FIG-ROS herein) or SLC-ROS-S (indicated SLC-ROS herein). Stable transfectant lines were sorted for GFP expression on a FACS Aria® flow cytometer. Cells were counted daily using Guava ViaCount® reagent and Guava Personal Cell Analysis® flow cytometer. […] Early passage NIH3T3 cells were infected with retrovirus expressing either FIG-ROS or SLC-ROS and sorted for GFP expression as described above for Ba/F3 cells. HCC78 cells were cultured in RPMI 1640 medium with 10% FBS, L-glutamine, and penicillin/streptomycin. This media is referred to as RPMI-10% FBS herein.
[…]. The Ba/F3 parental line was also tested. (O'Dwyer M E and Druker B J, Lancet Oncology 1, 207-211 (2000); Walters D K et al, Cancer Cell 10, 65-75 (2006); and Heukamp L C et al, Science Translational Medicine 4, 141ra191 (2012); […].

[1] = tested on: SLC-ROS and ERK1/2 phosphorylation; experiment: Immunoblot of HCC78 lysates; type: cell-based, human; conditions: HCC78 cells, immunoblot FIG. 1E
Experimental: FIG. 1E is an image of an immunoblot of lysates of HCC78 cells probing for phosphorylated and total SLC-ROS1 and ERK1/2, and phosphorylated protein S6 after treatment with the indicated concentration of the indicated inhibitor. The images are representative of two independent experiments.
(§1) Ba/F3 FIG-ROS, Ba/F3 SLC-ROS, HCC78 and mCC cell lines were treated with the indicated concentration of inhibitors for 1-2 hours. […] The protein content of the cell lysates was determined and lysates were either used for immunoprecipitation where indicated or extracted with SDS Sample buffer for 15 minutes at 80° C. Proteins were transferred to Immobilon-FL membranes and immunoblotted with antibodies specific for phospho-ROS1 (Cell Signaling Technology (CST) #3078), total ROS1 (CST #3266), phopsho-Shp2 (CST #3751), total Shpt (CST #3752), phospho-Stat3 (CST #9145), total Stat3 (CST #4904), phospho-Erk1/2 (CST #9101), total Erk2 (Santa Cruz #SC-1647), phospho-S6 (CST #4858), total S6 (CST #2216), phospho-Src (CST #2105), total Src (CST #2110), α-tubulin (Sigma T6199), or β-actin (Sigma A1978) as indicated. Images of the blots were generated by the LI-COR Odyssey® imaging system, following the manufacturer's protocol for immunoblot detection with use of IR-dye conjugated secondary antibodies.

NIH3T3 FIG-ROS cells = experiment: Soft agar colony formation, NIH3T3 FIG-ROS; type: cell-based; conditions: at lower doses than crizotinib
Text: The bottom panels are bar graphs indicating the number of colonies formed from the plates depicted in the top panels. The values indicate average colony number±SEM from 4 independent wells.

[2] = target: Ba/F3 FIG-ROS kinase domain mutants (Homo sapiens, UniProt P08922, cells depend on it, form not given); experiment: Cell viability assay, all tested Ba/F3 FIG-ROS kinase domain mutants; type: cell-based; conditions: V2098I, G1971E, L1982F, C2060G, L1947R, E1935G; read-out: IC50 across all tested FIG-ROS mutants
Experimental: Cell lines were distributed in 96-well plates and incubated with the indicated concentrations of inhibitor for 72 hours. […] Ba/F3 cell lines were plated at 4×10^3 cells/well. HCC78 and mCC cell lines were plated at 1.5×10^3 cells/well. All cell types were seeded in a final volume of 80 microliters. A 20 microliter volume of five-fold concentrated inhibitor media was added. Cell proliferation was measured using a […] viability assay (CellTiter96 Aqueous One® Solution; Promega). A BioTek Synergy 2® plate reader was used to read the absorbance at 490 nm at 30 minutes and 1 hour after addition of MTS. To facilitate comparison between experiments, the raw MTS absorbance of vehicle (0.1% DMSO) treated cells was set to 1 and absorbance from inhibitor treated wells was normalized to the vehicle treated value. […] Data were normalized using Microsoft Excel® and further non-linear regression curve fit analysis of the normalized data for determination of IC50 was performed using Graphpad Prism® software.
The FIG-ROS-S fusion gene was synthesized using the GeneArt® service. FIG-ROS-S is denoted as FIG-ROS herein.

FIG-ROS = FIG-ROS (Homo sapiens, UniProt P08922); experiment: Immunoblot of FIG-ROS murine cholangiocarcinoma cell lysates; type: cell-based; design: expressed in transfected cells; host or cells: murine cholangiocarcinoma tumour cell lines (lines 3 and 4) derived from transduced mouse hepatoblasts; the other entry of the earlier key: GOPC (Q9HD26, Golgi-associated PDZ and coiled-coil motif-containing protein); conditions: 100 nM, FIG-ROS murine cholangiocarcinoma cells
Experimental: […]. Images shown are representative of three independent experiments.
as §1
. The inhibition was dose dependent (FIG. 2B). […].

T1 sequence (P08922 whole entry, change not shown, the tested form may be a part): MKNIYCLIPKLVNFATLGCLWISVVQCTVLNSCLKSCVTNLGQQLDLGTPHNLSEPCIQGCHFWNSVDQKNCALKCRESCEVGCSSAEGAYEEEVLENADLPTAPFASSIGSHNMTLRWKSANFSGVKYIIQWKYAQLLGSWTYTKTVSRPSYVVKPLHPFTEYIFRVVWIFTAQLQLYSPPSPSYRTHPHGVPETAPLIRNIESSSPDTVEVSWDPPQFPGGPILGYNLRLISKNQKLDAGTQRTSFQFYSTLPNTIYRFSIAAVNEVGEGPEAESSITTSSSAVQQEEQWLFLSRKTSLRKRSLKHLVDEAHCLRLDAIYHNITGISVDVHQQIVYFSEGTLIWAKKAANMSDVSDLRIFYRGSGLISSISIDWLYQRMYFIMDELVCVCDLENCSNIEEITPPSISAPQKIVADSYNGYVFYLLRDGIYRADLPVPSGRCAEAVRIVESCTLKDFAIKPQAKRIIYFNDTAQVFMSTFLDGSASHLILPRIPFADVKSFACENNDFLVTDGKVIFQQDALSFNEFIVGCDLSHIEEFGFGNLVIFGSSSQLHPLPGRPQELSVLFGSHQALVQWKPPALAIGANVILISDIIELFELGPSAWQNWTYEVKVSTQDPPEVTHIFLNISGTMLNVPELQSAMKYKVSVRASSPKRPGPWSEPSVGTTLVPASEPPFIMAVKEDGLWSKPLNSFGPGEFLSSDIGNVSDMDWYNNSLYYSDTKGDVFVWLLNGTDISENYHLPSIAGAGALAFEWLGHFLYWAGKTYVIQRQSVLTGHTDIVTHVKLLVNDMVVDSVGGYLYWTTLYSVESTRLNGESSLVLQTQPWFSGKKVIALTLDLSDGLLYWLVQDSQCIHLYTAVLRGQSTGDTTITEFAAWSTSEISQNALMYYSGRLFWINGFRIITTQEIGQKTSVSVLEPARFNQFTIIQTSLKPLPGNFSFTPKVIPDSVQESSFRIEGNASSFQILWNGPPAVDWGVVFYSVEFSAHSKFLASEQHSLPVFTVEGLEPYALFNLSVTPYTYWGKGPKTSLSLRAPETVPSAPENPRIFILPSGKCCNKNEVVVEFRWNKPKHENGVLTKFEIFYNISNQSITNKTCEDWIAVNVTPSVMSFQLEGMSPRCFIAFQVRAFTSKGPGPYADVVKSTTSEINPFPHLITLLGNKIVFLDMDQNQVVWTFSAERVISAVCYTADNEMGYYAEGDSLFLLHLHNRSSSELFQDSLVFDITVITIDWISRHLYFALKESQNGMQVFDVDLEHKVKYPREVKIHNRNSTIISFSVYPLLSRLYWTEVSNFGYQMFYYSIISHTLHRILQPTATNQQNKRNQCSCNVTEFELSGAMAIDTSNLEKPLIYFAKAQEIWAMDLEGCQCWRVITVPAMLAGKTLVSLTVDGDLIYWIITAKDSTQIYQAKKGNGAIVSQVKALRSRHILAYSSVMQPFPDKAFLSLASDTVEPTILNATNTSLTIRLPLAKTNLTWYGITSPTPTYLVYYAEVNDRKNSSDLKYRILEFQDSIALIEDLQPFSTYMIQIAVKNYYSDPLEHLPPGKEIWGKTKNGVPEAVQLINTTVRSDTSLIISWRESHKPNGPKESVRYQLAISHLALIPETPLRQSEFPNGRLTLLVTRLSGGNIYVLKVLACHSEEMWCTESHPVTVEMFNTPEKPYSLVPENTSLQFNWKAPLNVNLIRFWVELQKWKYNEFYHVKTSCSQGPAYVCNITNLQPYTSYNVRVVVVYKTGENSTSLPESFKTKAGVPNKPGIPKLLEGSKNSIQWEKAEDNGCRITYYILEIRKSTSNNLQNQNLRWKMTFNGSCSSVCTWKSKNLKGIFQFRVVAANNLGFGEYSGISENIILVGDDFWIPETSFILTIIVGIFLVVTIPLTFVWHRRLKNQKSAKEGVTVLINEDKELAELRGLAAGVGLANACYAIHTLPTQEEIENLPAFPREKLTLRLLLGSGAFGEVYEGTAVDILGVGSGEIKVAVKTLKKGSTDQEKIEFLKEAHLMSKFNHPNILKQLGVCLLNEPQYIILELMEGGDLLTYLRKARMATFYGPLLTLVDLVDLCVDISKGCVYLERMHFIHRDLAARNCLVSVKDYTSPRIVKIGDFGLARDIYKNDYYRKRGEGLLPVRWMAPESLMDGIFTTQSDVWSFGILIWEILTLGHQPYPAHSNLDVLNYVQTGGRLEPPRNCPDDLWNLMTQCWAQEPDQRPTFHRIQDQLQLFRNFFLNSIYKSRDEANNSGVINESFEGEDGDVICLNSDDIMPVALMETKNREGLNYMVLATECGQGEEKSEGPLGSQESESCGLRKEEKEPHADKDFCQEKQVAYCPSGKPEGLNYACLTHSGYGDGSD
Chain of FIG-ROS (P08922 with tags, fused parts or gaps): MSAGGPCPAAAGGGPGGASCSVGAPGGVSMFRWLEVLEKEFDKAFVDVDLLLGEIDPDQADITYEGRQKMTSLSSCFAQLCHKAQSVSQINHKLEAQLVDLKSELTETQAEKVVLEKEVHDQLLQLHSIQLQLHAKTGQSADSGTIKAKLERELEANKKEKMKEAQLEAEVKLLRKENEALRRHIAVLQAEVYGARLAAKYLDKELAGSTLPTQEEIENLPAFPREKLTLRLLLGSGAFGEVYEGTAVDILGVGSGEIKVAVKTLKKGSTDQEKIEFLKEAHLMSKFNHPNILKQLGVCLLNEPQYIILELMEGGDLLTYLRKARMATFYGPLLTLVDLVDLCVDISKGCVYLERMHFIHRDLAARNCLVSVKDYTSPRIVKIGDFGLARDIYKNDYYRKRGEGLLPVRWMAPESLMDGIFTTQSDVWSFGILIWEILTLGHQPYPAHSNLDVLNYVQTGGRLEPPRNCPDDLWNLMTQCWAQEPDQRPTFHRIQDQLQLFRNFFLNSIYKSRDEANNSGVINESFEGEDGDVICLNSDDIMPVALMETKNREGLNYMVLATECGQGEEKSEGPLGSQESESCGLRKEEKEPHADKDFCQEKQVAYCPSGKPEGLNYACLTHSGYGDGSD

`COc1cc2c(Oc3ccc(NC(=O)C4(C(=O)Nc5ccc(F)cc5)CC4)cc3F)ccnc2cc1OCCCN1CCOCC1` [foretinib, N1′-[3-fluoro-4-[[6-methoxy-7-(3-morpholinopropoxy)-4-quinolyl]oxy]phenyl]-N1-(4-fluorophenyl)cyclopropane-1,1-dicarboxamide] was tested, and the GI50 (Ba/F3 FIG-ROS cells; Table 3, mutant: None (Ba/F3 FIG-ROS), nM, read-out: IC50 (the source's name)) was 2.03 nM, the GI50 (Ba/F3 FIG-ROS cells; read-out: IC50 (50% growth inhibitory concentration), Ba/F3 FIG-ROS cells, 72 hours, MTS) was 2 nM and the GI50 (Ba/F3 FIG-ROS cells; read-out: IC50 (50% growth inhibitory concentration), Ba/F3 FIG-ROS cells, 72 hours, MTS, listed as Foretinib) was 2.2 nM. For the same molecule, the pIC50 (Ba/F3 parental cells) was less than 5.70, the “inhibition of SLC-ROS and ERK1/2 phosphorylation” value [1] was “at a lower concentration than did crizotinib” and the anchorage-independent colony formation (NIH3T3 FIG-ROS cells) was “strongly suppressed”. The GI50 [2] was less than 20 nM and the “auto-phosphorylation of FIG-ROS and phosphorylation of Shpt and ERK1/2” value (FIG-ROS) was “almost completely inhibited”.

— patent US20140243332A1, “METHODS OF TREATING CANCERS CHARACTERIZED BY ABERRENT ROS1 ACTIVITY” (Oregon Health & Science University, priority 2013, published 2014)
